Assay results as given in PMC10920428 (Applied Microbiology and Biotechnology, 2024).

Biological target: T1, homogentisate solanesyltransferase (CrHST) (Chlamydomonas reinhardtii, UniProt A1JHN0)
T1 construct: gene HST; N-terminal GST tag (pDEST15), expressed in E. coli BL21 AI
Test: biochemical

T1 sequence (A1JHN0 51-370): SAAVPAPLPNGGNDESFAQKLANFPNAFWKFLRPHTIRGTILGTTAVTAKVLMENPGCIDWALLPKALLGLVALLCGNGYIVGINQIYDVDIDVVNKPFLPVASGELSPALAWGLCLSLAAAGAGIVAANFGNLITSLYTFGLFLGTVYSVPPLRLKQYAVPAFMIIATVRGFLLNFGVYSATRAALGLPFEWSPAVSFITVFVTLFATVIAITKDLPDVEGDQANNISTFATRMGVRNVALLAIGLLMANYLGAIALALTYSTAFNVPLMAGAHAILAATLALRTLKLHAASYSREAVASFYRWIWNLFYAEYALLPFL

- IC50: 3.63 ± 0.53 µM
SMILES: Cc1cccc(C2CC2)c1Oc1nnc(Cl)cc1O [DMC, Des-Morpholinocarbony Cyclopyrimorate]
